# Measured values reported in US7473681B2, “Kahalalide F” (Pharma Mar, S.A., priority 2000, dated 2009).
# Read-outs that look alike come from different tables or passages of the source.
# How the values were obtained:
# [1] = Rodent maximum tolerated dose; type: in vivo
# [2] = test system: RB; experiment: In vitro antiproliferative study; type: cell-based; conditions: RB prostate tumor
# [3] = glass infusion containers, refrigerated (+2-8° C., in the dark)
# Description: Prior to in i.v. administration it is reconstituted with a solution composed of Cremophor EL, ethanol absolute and Water for Injection (CEW, 5/5/90% v/w) with further dilution in 0.9% w/v sodium chloride for infusion.
# [4] = CellTiter96 (MTS) in vitro cytotoxicity assay; type: cell-based; conditions: mouse, AML-12 liver cells; read-out: LD50 (the source's name)
# [5] = test system: DU-145; experiment: In vitro antiproliferative study; type: cell-based; conditions: DU-145 prostate tumor
# [6] = test system: hepatocellular carcinoma cells; experiment: Cytotoxicity to carcinoma cells; type: cell-based
# [7] = test system: central nervous system (CNS) neurons (neurofilament positive); experiment: Fluorescent viability stain with immunocytochemistry; type: cell-based; conditions: ethidium homodimer and calcein AM stain
# Procedure: (§1) We have also found this drug to be neuxotoxic at high concentrations in our assay system and which correlates well with animal data showing neurotoxicity above the maximum tolerated dose (MTD). Using a fluorescent viability stain (ethidium homodimer and calccin AM, Molecular Probes) coupled with immunocytochemistry, we determined that ˜10 μM Kahalalide is toxic to central nervous system (CNS) neurons (neurofilament positive) but spares astrocytes (glial fibrilary acidic protein positive) as well as sensory (substance P expressing) and motor (choline acetyl transferase positive) neurons in the spinal cord. We conclude that Kahalalide F is a promising drug for the treatment of prostate cancer as its neurotoxicity is relatively mild at or below MTD levels.
# [8] = test system: motor (choline acetyl transferase positive) neurons in the spinal cord; experiment: as above; type: cell-based; conditions: ~10 μM
# Procedure: as §1
# [9] = test system: astrocytes (glial fibrilary acidic protein positive); experiment: as above; type: cell-based; conditions: ~10 μM
# Procedure: as §1
# [10] = test system: sensory (substance P expressing) neurons in the spinal cord; experiment: as above; type: cell-based; conditions: ~10 μM
# Procedure: as §1
# [11] = Phase I study: plasma pharmacokinetics; type: in vivo, human
# Procedure: Bioanalysis of KF was performed by LC-MS/MS.
# [12] = test system: patients with advanced or metastatic androgen refractory prostate cancer; experiment: Phase I study: toxicity and anti-tumor activity; type: in vivo, human
# [13] = test system: BT-474; experiment: In vitro antiproliferative study; type: cell-based; conditions: BT-474 neu+ breast tumor cells
# [14] = Solubility of KF and recovery after reconstitution and dilution; type: physicochemical; conditions: 5/5/90% v/v/v CEW, diluted with 0.9% NaCl down to 0.5 μg/mL
# Procedure: Methods. Solubility and stability of KF were studied as a function of polysorbate 80 (P80; 0.1-0.5% w/v) and citric acid monohydrate (CA; 5-15 mM) concentrations using an experimental design approach. Stabilities of KF lyophilized products containing crystalline (mannitol) or amorphous (sucrose) bulking agents were studied at +5° C. and +30° C. in the dark. Lyophilized products were characterized by infrared (IR) spectroscopy and differential scanning calorimetry. Recovery studies after reconstitution of KP lyophilized product and further dilution in infusion fluid were carried out to select an optimal reconstitution vehicle. Results. […] A combination of 0.1% w/v P80 and 5 mM CA was selected for further investigation. […] The glass transition temperature of the sucrose-based product was determined to be +46° C. The amorphous state of the product was confirmed by IR analysis. […] A stable lyophilized formulation is presented containing 100 μg of kahalalide F, 100 mg sucrose, 2.1 mg CA and 2 mg P80 to be reconstituted with a vehicle composed of 5/5/90% v/v/v CEW, and to be further dilute using normal saline.
# [15] = test system: PC-3; experiment: In vitro antiproliferative study; type: cell-based; conditions: PC-3 prostate tumor
# [16] = test system: BE(2)C; experiment: In vitro antiproliferative study; type: cell-based; conditions: BE(2)C neuroblastoma cell line
# [17] = test system: prostate carcinoma cells; experiment: Cytotoxicity to carcinoma cells; type: cell-based
# [18] = CellTiter96 (MTS) in vitro cytotoxicity assay; type: cell-based; conditions: mouse, FDC-P1 myelogenous stem cells; FDC-Pl myelogenous stem cells; read-out: LD50 (the source's name)
# [19] = test system: skeletal muscle (L8) cells; experiment: CellTiter96 (MTS) in vitro cytotoxicity assay; type: cell-based
# [20] = CellTiter96 (MTS) in vitro cytotoxicity assay; type: cell-based; conditions: rat, NRX-52E kidney cells; read-out: LD50 (the source's name)
# [21] = test system: fresh human tumor specimens; experiment: Human Tumor Cloning Assay; type: cell-based; conditions: 14-day continuous exposure, 31 evaluable specimens
# Procedure: In the present study, fresh human tumor specimens were treated with KF to determine activity, utilizing the Human Tumor Cloning Assay. One hundred and four patient tumor specimens were treated with KF under 14-day continuous exposure at 0.01, 0.1, and 1.0 μM. Specimens were incubated in a 2-layer soft-agar cloning system at 37° C. and were removed on Day 14 for colony count. Colonies formed in the treated plates were compared to the number of colonies formed in the untreated control plates, and the percent colonies surviving at each concentration was calculated. The positive control plates contained the cell poison orthosodium vanadate (200 μg/ml). Among these specimens, approximately 30% were evaluable with appropriate negative and positive controls.
# [22] = test system: osteosarcomas, OSAs
# [23] = test system: dedifferentiated and mesenchymal chodrosarcomas, CHSAs
# [24] = test system: DHM; experiment: In vitro antiproliferative study; type: cell-based; conditions: DHM prostate tumor
# [25] = test system: SK-BR-3; experiment: In vitro antiproliferative study; type: cell-based; conditions: SK-BR-3 neu+ breast tumor cells
# [26] = CellTiter96 (MTS) in vitro cytotoxicity assay; conditions: H9 c2 (2-1) cardiac cells
# [27] = test system: T-10; experiment: In vitro antiproliferative study; type: cell-based; conditions: T-10 prostate tumor
# [28] = In vitro exposure studies; type: cell-based; conditions: exposure of 1 hour as potent as 48 hours, in most cases
smiles,measurement,setting,value
"C/C=C1\NC(=O)[C@H](Cc2ccccc2)NC(=O)[C@@H](C(C)C)NC(=O)[C@@H](C(C)CC)NC(=O)[C@H](NC(=O)C(NC(=O)[C@H](CCCN)NC(=O)[C@H]2CCCN2C(=O)[C@H](NC(=O)[C@@H](NC(=O)[C@@H](NC(=O)[C@H](NC(=O)CCCC(C)C)C(C)C)C(C)O)C(C)C)C(C)C)C(C)CC)C(C)OC(=O)[C@H](C(C)C)NC1=O (single isomer, unassigned) [Kahalalide F, kahalalide F]",MTD,[1],300 μg/kg BW
same,IC50,[2],190 nM
same,stability of infusion solutions,[3],at least 5 days
same,CC50,[4],170 nM
same,IC50,[5],250 nM
same,cytotoxicity,[6],cytotoxic
same,concentration toxic to CNS neurons,[7],~10 µM
same,toxicity to motor neurons,[8],spares
same,toxicity to astrocytes,[9],spares
same,toxicity to sensory neurons,[10],spares
same,maximum plasma concentrations,[11]; 320 μg/m2/day,35 to 50 ng/mL
same,relationship between dose and AUC,"[11]; i.v. infusion over one hour, 20-320 μg/m2/day, patients",linear relationship
same,drug related toxicity,"[12]; 320 μg/m2/day, rapidly reversible",CTC grade 3 ASAT
same,tolerability of schedule,"[12]; one hour infusion, five consecutive days every three weeks",well tolerated
same,maximum tolerated dose,"[12]; up to 320 μg/m2/day, study ongoing",has not been reached yet
same,IC50,[13],2000 nM
same,KF in solution after reconstitution and further dilution,[14],kept KF in solution
same,IC50,[15],270 nM
same,IC50,[16],1000 nM
same,cytotoxicity,[17],cytotoxic
same,CC50,[18],14000 nM
same,LD50,[19],0.6 mM
same,CC50,[20],1600 nM
same,specimens with in vitro response (50% survival),[21]; 0.01 μg/M,16%
same,specimens with in vitro response (50% survival),[21]; 0.1 μg/M,19%
same,specimens with in vitro response (50% survival),[21]; 1.0 μg/M,81%
same,cytotoxicity,[22],cytotoxic
same,cytotoxicity,[23]; CHSAs,cytotoxic
same,exposure time eliciting a cytotoxic effect,[23]; cells not specified further in the sentence,10 min
same,IC50,[24],240 nM
same,IC50,[25],2500 nM
same,LD50,[26],5 mM
same,IC50,[27],730 nM
same,schedule dependence of cytotoxicity,[28],not schedule-dependent
